The values that follow come from ChEMBL document CHEMBL1208756, “LuxR-dependent quorum sensing: computer aided discovery of new inhibitors structurally unrelated to N-acylhomoserine lactones” (Bioorg Med Chem Lett, 2010).

Test [1] has as its target T1, Transcriptional activator protein LuxR (Aliivibrio fischeri, UniProt P12746).
T1 sequence (P12746 whole entry): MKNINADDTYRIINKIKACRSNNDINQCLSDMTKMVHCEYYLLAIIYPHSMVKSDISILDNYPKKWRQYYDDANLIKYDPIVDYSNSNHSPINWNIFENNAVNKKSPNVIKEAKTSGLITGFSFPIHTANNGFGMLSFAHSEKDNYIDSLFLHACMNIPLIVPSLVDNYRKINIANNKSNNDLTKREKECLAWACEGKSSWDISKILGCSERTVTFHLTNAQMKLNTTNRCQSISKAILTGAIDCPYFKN
Briefly: Inhibition of LuxR-dependent quorum sensing in Vibrio fischeri assessed as reduction of 3-oxo-C6-HSL-induced bioluminescence intensity.

The target of test [2] is T2, Transcriptional activator protein LuxR (Aliivibrio fischeri) (UniProt P12746).
T2 sequence (whole entry): T1 sequence (P12746 whole entry)
Briefly: Inhibition of LuxR-dependent quorum sensing in Vibrio fischeri assessed as reduction of 3-oxo-C6-HSL-induced bioluminescence intensity at 20 uM.

Test [3] addresses T2, Transcriptional activator protein LuxR (Aliivibrio fischeri). Briefly: Inhibition of LuxR-dependent quorum sensing in Vibrio fischeri assessed as reduction of 3-oxo-C6-HSL-induced bioluminescence intensity at 40 uM.
Test [4] has the same target. Kind of test: Induction of LuxR-dependent quorum sensing in Vibrio fischeri assessed as induction of bioluminescence intensity up to 200 uM.

Activity calls are given as the source filed them. The rule behind the calls is not given here.

By IC50 is commonly meant the point on the concentration scale where inhibition reaches its midpoint. As usually defined, the inhibition is how much of the control response was suppressed. Consider `CC/C(=C(\c1ccccc1)c1ccc(OCCN(C)C)cc1)c1ccccc1` [TAMOXIFEN], for which the IC50 in test [1] turned out to be 40 µM. Also, the inhibition in test [2] was determined as 73.6%; in test [3], 53%. Further, in test [4], the outcome was inactive.

For `Clc1ccc(C(c2ccc(Cl)cc2)n2cc[n+](CC(OCc3ccc(Cl)cc3Cl)c3ccc(Cl)cc3Cl)c2)cc1` (centres undefined) [CALMIDAZOLIUM CHLORIDE], in test [1], the IC50 stood at 7 µM.

On to `CC(C)(C)c1ccc(C(O)CCCN2CCC(C(O)(c3ccccc3)c3ccccc3)CC2)cc1` (centres undefined) [TERFENADINE], for which the IC50 in test [1] worked out at 92 µM. Further, in test [4], the result was inactive.

As to `CN1CCC(=C2c3ccccc3Sc3ccccc32)CC1` [PIMETHIXENE], in test [1], the IC50 worked out at 56 µM. The result in test [4] was inactive.

With `Clc1ccc(C(c2ccc(Cl)cc2)[n+]2ccn(CC(OCc3ccc(Cl)cc3Cl)c3ccc(Cl)cc3Cl)c2)cc1` (centres undefined), the outcome in test [4] was inactive.

On to `CN[C@H]1CC[C@@H](c2ccc(Cl)c(Cl)c2)c2ccccc21` [SERTRALINE], for which the IC50 in test [1] amounted to 27 µM. The outcome in test [4] was inactive.

As for `CC(NCCC(c1ccccc1)c1ccccc1)c1ccccc1` (centres undefined) [FENDILINE], the 50% inhibitory concentration (IC50) in test [1] was 91 µM. Further, in test [4], the result was inactive.
